“Also recorded” adds a separate entry of the source.
Tests used:
[1] = test system: L. amazonensis promastigotes; experiment: Antipromastigote test, L. amazonensis; assay type: cell-based, Leishmania amazonensis; settings: for IC50: Leishmania amazonensis, 72 h, resazurin, Mean ± SEM, read-out: L. amazonensis Promastigote IC50
Experimental: New cultures of promastigotes were obtained from infected Balb/C mice. […] A stock solution of the compounds was prepared at 50 mM in dimethylsulfoxide (Sigma Aldrich). The maximum solvent concentration used in the assays was 0.4% in a final volume per well of 200 μL. The cultures were initiated with 1.0 × 10^6 cells/ml and maintained at 26 °C for 72 h. Inhibition of parasitic growth was determined by cell viability indicator, resazurin [23], with excitation λ = 560 nm and emission λ = 590 nm or the number of parasites was then counted in a Neubauer chamber (experiments with L. braziliensis).

[2] = test system: L. braziliensis promastigotes; experiment: Antipromastigote test, L. braziliensis; assay type: cell-based; settings: for IC50: Leishmania braziliensis, 72 h, parasites counted in Neubauer chamber, Mean ± SEM, read-out: L. braziliensis Promastigote IC50
Experimental: L. braziliensis (MCAN/BR/98/R619) was routinely isolated from hamster lesions and maintained as promastigotes in Schneider’s insect medium containing 20% HIFCS and 100 μg/ml gentamicin (Schering-Plough). New cultures of promastigotes were obtained from an infected hamster.
(§1) Leishmania promastigotes of three species were incubated in 96-well plates (Nunc, Roskilde, Denmark) under the conditions described above in either the absence or presence of different concentrations of pterocarpanquinones 2a-f (0-100 μM). A stock solution of the compounds was prepared at 50 mM in dimethylsulfoxide (Sigma Aldrich). The maximum solvent concentration used in the assays was 0.4% in a final volume per well of 200 μL. The cultures were initiated with 1.0 × 10^6 cells/ml and maintained at 26 °C for 72 h. Inhibition of parasitic growth was determined by cell viability indicator, resazurin [23], with excitation λ = 560 nm and emission λ = 590 nm or the number of parasites was then counted in a Neubauer chamber (experiments with L. braziliensis). The 50% inhibitory concentration (IC50) was determined by nonlinear regression analysis in the software GraphPad Prism 5.

[3] = test system: L. infantum promastigotes; experiment: Antipromastigote test, L. infantum; assay type: cell-based, Leishmania infantum; settings: for IC50: Leishmania infantum, 72 h, resazurin, Mean ± SEM, read-out: L. infantum Promastigote IC50
Experimental: Leishmania infantum (MHOM/MA67ITMAP263) parasites were isolated from female BALB/c mice infected and cultured at 26 °C in Schneider’s insect medium supplemented with 20% HIFCS, streptomycin at 100 μg/ml and penicillin at 100 U/ml. New cultures of promastigotes were obtained from infected Balb/C mice.
as §1

[4] = test system: intracellular amastigotes of L. amazonensis; experiment: Antiamastigote test, L. amazonensis in mouse peritoneal macrophages; assay type: cell-based, Leishmania amazonensis; settings: for L. amazonensis SI (Selective Index): CC50 in Macrophages/IC50 in intracellular amastigotes; for IC50: Leishmania amazonensis, Peritoneal macrophage, intracellular amastigotes in mouse peritoneal macrophages, 72 h, infection index, Mean ± SEM, read-out: L. amazonensis Amastigote IC50
Experimental: (§2) For the test against intracellular amastigotes of L. amazonensis and L. infantum, resident peritoneal macrophages (swiss mouse) were plated in RPMI (Sigma-Aldrich) at 2 × 10^6/mL (0.4 mL/well) in Lab-Tek eight-chamber slides (Nunc, Roskilde, Denmark) and incubated at 37 °C in 5% CO2 for 1 h. Stationary-phase L. amazonensis and L. infantum promastigotes were added at respective parasite/macrophage ratios of 3:1 and 5:1 for 4 h. After washing three times, pterocarpanquinones 2a-f at various concentrations were added for 72 h. Next, the slides were stained using an Instant Prov hematological dye system (Newprov, Curitiba, Brazil). The number of amastigotes was determined by counting at least 100 macrophages per sample.
(§3) The results were expressed as an infection index (% infected cells×number of amastigotes/total number of macrophages). The 50% inhibitory concentration (IC50) was determined by nonlinear regression analysis in the software GraphPad Prism 5.

[5] = test system: intracellular amastigotes of L. braziliensis; experiment: Antiamastigote test, L. braziliensis in golden hamster macrophages; assay type: cell-based; settings: for L. braziliensis SI (Selective Index): CC50 in Macrophages/IC50 in intracellular amastigotes; for IC50: Leishmania braziliensis, Peritoneal macrophage, intracellular amastigotes in golden hamster peritoneal macrophages, 72 h, infection index, Mean ± SEM, read-out: L. braziliensis Amastigote IC50
Experimental: Macrophages of golden hamsters were used in assays against intracellular amastigotes of L. braziliensis due to the natural resistance of mice. Resident macrophages were obtained from the peritoneal cells of golden hamsters after a peritoneal injection of 10 mL of Dulbecco’s Modified Eagle’s medium (DMEM) (Sigma-Aldrich). The peritoneal macrophages were plated onto glass coverslips placed within the wells of a 24-well culture plate and incubated at 37 °C in 5% CO2 for 1 h. After removing the nonadherent cells, the monolayers were infected with stationary-phase L. braziliensis promastigotes at a 5:1 parasite/macrophage ratio for 4 h. The infected macrophages were washed and incubated with several pterocarpanquinone concentrations (0-25 μM) for 72 h. The monolayers were then stained with Giemsa, and at least 100 infected macrophages per sample were counted under optical microscopy.
as §3

[6] = test system: intracellular amastigotes of L. infantum; experiment: Antiamastigote test, L. infantum in mouse peritoneal macrophages; assay type: cell-based, Leishmania infantum; settings: for IC50: Leishmania infantum, Peritoneal macrophage, intracellular amastigotes in mouse peritoneal macrophages, infection index, Mean ± SEM, read-out: L. infantum Amastigote IC50; for L. infantum SI (Selective Index): CC50 in Macrophages/IC50 in intracellular amastigotes
Experimental: as §2, §3

[7] = test system: promastigotes of L. infantum; experiment: Mitochondrial membrane potential (ΔΨm) test (rhodamine 123, flow cytometry); assay type: cell-based, Leishmania infantum; settings: for Δѱm index of variation (IV): Rh123, IV = (MT − MC)/MC, mean ± SD; for effect on ΔΨm (in words): rhodamine 123, flow cytometry
Experimental: To determine the effect of pterocarpanquinones 2a-f on the ΔΨm, promastigotes of L. infantum (5 × 10^6 cells/mL) were incubated in the presence of 0–5 μM of derivatives at 26 °C. After 4 h, the parasites were incubated for 15 min with 10 μg/mL rhodamine 123 (Rh123) (Sigma-Aldrich). Data acquisition of 10,000 events and analysis were performed using the flow cytometer FACSCalibur (Becton-Dickinson, Rutherford, NJ, USA). Alteration in ΔΨm was quantified using an index of variation (IV) obtained by the eq. IV = (MT − MC)/MC [24], where MT is the median of the fluorescence of Rh123 for treated parasites and MC is the median of the fluorescence of the control parasites. Negative IV values correspond to depolarization of the mitochondrial membrane. The FCCP (Carbonyl cyanide-p-Trifluoromethoxyphenylhydrazone) 20 μM was used as positive control.

[8] = Macrophage toxicity test (resazurin); assay type: cell-based, Swiss mice; settings: mouse; peritoneal macrophages of Swiss mice, 72 h, resazurin, Mean ± SEM; read-out: Murine Macrophage CC50
Experimental: To evaluate the toxicity of pterocarpanquinones 2a-f, peritoneal macrophages of Swiss mice (2 × 10^6/mL) were incubated with pterocarpanquinones (1.25–100 μM) for 72 h at 37 °C/5% CO2. Viability was evaluated with resazurin assay as described for the antipromastigote test. The 50% cytotoxicity concentration (CC50) was determined by nonlinear regression analysis in the software GraphPad Prism 5.

[9] = test system: promastigotes of L. infantum; experiment: Measurement of reactive oxygen species (H2DCFDA); assay type: cell-based, Leishmania infantum; settings: 1.25–5.0 μM; for ROS production, dependence on concentration: 4 h
Experimental: Intracellular ROS levels were measured in treated and untreated cells as described previously. Briefly, 1 × 10^7 promastigotes/mL of L. infantum were incubated in Schneider’s insect medium supplemented with 20% HIFCS at 26 °C with concentrations of pterocarpanquinones 2a-f ranging from 0 to 5 μM in the presence of 20 μM H2DCFDA (Molecular Probes, Eugene, OR, USA). The fluorescence was monitored at 1 h intervals for 4 h using 485 and 530 nm as excitation and emission wavelengths, respectively, using the spectrofluorometer Spectra Max Gemini XPS (Molecular Devices, Silicon Valley, CA, USA). Antimycin A 10 μM was used as positive control.

[10] = 1.25 μM, 4 h, negative = depolarization
[11] = 2.5 μM, 4 h, negative = depolarization

Row | SMILES | IC50 [1] | IC50 [2] | IC50 [3] | L. amazonensis SI (Selective Index) [4] | IC50 [4] | L. braziliensis SI (Selective Index) [5] | IC50 [5] | IC50 ([6]; 72 h) | Δѱm index of variation (IV) [7, 10] | Δѱm index of variation (IV) [7, 11] | effect on ΔΨm (in words) ([7]; 4 h) | CC50 at 72 h [8] | ROS production, dependence on concentration [9] | L. infantum SI (Selective Index) [6] | also measured
1 | COc1ccc2c(c1)[C@H]1OC3=C(C(=O)c4ccccc4C3=O)[C@H]1CC2 (relative stereo) [LQB 475 (2f)] | 0.4 ± 0.06 µM | 10.5 ± 1.01 µM | 1.4 ± 0.7 µM | 23.76 | 2.1 ± 0.4 µM | 5.53 | 9.02 ± 1.64 µM | > 40 µM | −0.668 ± 0.01 | −0.707 ± 0.01 | greater depolarization | – | – | – | –
2 | N#CC(C#N)=NNc1ccc(OC(F)(F)F)cc1 [FCCP, Carbonyl cyanide-p-Trifluoromethoxyphenylhydrazone, reference compound] | – | – | – | – | – | – | – | – | – | – | – | – | – | – | Δѱm index of variation (IV) ([7]; 20 μM (positive control)): −0.727 ± 0.01
3 | COc1ccc2c(c1)CC[C@@H]1C3=C(O[C@H]21)C(=O)c1ccccc1C3=O (relative stereo) [LQB 474 (2e)] | 0.5 ± 0.07 µM | 12.3 ± 0.45 µM | 2.2 ± 0.3 µM | 5.74 | 2.6 ± 0.8 µM | 1.74 | 8.53 ± 1.12 µM | > 10 µM | −0.582 ± 0.1 | −0.701 ± 0.01 | greater depolarization | 14.9 ± 1.43 µM | only increased ROS production when the parasite was incubated with the highest concentration of 5 μM | – | –
4 | N=C(N)c1ccc(OCCCCCOc2ccc(C(=N)N)cc2)cc1 [Pentamidine, reference compound] | 4.8 ± 0.09 µM | 13 ± 0.04 µM | 5.7 ± 0.12 µM | 4.47 | 1.9 ± 0.1 µM | 1.1 | 7.7 ± 2.4 µM | 0.4 ± 0.2 µM | – | – | – | 8.5 ± 1.25 µM | – | 21.25 | –
5 | O=C1C2=C(C(=O)c3ccccc31)[C@H]1COc3ccccc3[C@H]1O2 [LQB 182 (2b)] | 1.08 ± 0.2 µM | 11 ± 1.25 µM | 1 ± 0.3 µM | 19.8 | 0.85 ± 0.02 µM | 2.15 | 7.84 ± 2.46 µM | 3.6 ± 0.9 µM | −0.397 ± 0.07 | −0.402 ± 0.04 | – | 16.9 ± 1.2 µM | increased ROS generation dependent on compound concentration | 4.69 | improvement of activity, 2b in comparison to 1 ([1]; promastigotes of L. amazonensis): about 1.6 times; decrease in antileishmanial activity, 2b in comparison to 1 ([2]; promastigotes of L. braziliensis): 3.2 times; activity relative to deoxy derivative 2a ([2]; promastigotes of L. braziliensis, listed as 2b): approximately twice as active; also recorded: approximately two times more active; improvement of activity, 2b in comparison to 1 ([3]; promastigotes of L. infantum): ~4 times; improvement of activity, 2b in comparison to 1 ([4]; amastigotes of L. amazonensis): about 1.6 times; activity against L. infantum amastigotes (in words) ([6]; intracellular amastigotes, 72 h): the only one active; Early ROS production after 4 h of treatment ([9]; compared with control, listed as 2b): induction of increased ROS production
6 | O=C1C2=C(C(=O)c3ccccc31)[C@H]1CCc3ccccc3[C@H]1O2 (relative stereo) [LQB 187 (2a)] | 1.05 ± 0.21 µM | 23.1 ± 1.63 µM | 1.2 ± 0.2 µM | 54.7 | 0.9 ± 0.1 µM | 5.0 | 9.85 ± 1.37 µM | > 25 µM | −0.103 ± 0.16 | −0.368 ± 0.03 | – | 49.3 ± 1.1 µM | – | – | –
